According to patent publication US6916832B2, “Chromeno[4,3,2-de]isoquinolines as potent dopamine receptor ligands” (University of North Carolina at Chapel Hill, priority 1999, dated 2005):
Blank lines part the entries; values can stand above or below the compound they belong to.

Key:
D1 receptors [1] = target: T1, D1 receptors (Rattus norvegicus, UniProt P18901); test: cAMP production in rat striatum homogenate; type: biochemical; details: for agonist intrinsic activity at D1 receptors: rat striatum / rat striatal membranes, relative to dopamine
T1 construct: Frozen rat striata was homogenized by seven manual strokes; from tissue; host or cells: rat striatum
Procedure: Frozen striatal tissue (ca. 40 mg) was homogenized in 4 ml of buffer (5 mM Hepes, 2 mM EGTA, pH 7.5) using 10 strokes in a Wheaton Teflon-glass homogenizer. Four ml of 50 mM Hepes with 2 mM EGTA buffer (pH 7.5) was added, and the tissue was homogenized by an additional 3 strokes. A 20 μl aliquot of this tissue homogenate was added to a prepared reaction. The reaction mixture consisted of 100 mM Hepes (pH 7.4), 100 mM NaCl, 4 mM MgCl2, 2 mM EDTA, 500 μM isobutyl methylxanthine (IBMX), 0.01% ascorbic acid, 10 μM pargyline, 2 mM ATP, 5 μM GTP, 20 mM phosphocreatine, 5 units of creatine phosphokinase (CPK), and selected concentrations of DA. The final reaction volume was 100 μl. Basal cAMP activity was determined by incubation of tissue in the reaction mixture with no drug added. Tubes were assayed in duplicate. After a 15 min incubation at 30° C., the reaction was stopped with the addition of 500 μl of 0.1 N HCl. Tubes were vortexed briefly, and then spun in a BHG Hermle Z 230 M microcentrifuge for five min at 15,000×g to eliminate large particles. The concentration of cAMP in each sample was determined with an RIA of acetylated cAMP, modified from that previously described (Harper and Brooker, 1975). Iodination of cAMP was performed using a method described previously (Patel and Linden, 1988). Assay buffer was 50 mM sodium acetate buffer with 0.1% sodium azide (pH 4.75). Standard curves of cAMP were prepared in buffer at concentrations of 2 to 500 fmoles/assay tube. To improve assay sensitivity, all samples and standards were acetylated with 10 μl of a 2:1 solution of triethylamine:acetic anhydride. Samples were assayed in duplicate. Each assay tube contained 100 μl of diluted sample, 100 μl of primary antibody (sheep, anti-cAMP, 1:100,000 dilution with 1% BSA in buffer) and 100 μl of [^125I]-cAMP (50,000 dpm/100 μl of buffer); total assay volume was 300 μl. Tubes were vortexed and stored at 4° C. overnight (approx. 18 hr). Antibody-bound radioactivity was then separated by the addition of 25 μL of BioMag rabbit, anti-goat IgG (Advanced Magnetics, Cambridge Mass.), followed by vortexing and further incubation at 4° C. for 1 hr. To these samples 1 ml of 12% polyethylene glycol/50 mM sodium acetate buffer (pH 6.75) was added and all tubes were centrifuged at 1700×g for 10 min. Supernatants were aspirated and radioactivity in the resulting pellet was determined using an LKB Wallac gamma counter (Gaithersburg, Md.). Data were calculated for each sample, and expressed initially as pmol/mg/min cAMP. […] Normalized dose-response curves were analyzed by nonlinear regression using an algorithm for sigmoid curves in the curvefitting program InPlot (Graphpad, Inc.; San Francisco, Calif.). […]

D1 receptors [2] = target: T2, D1 receptors (Macaca mulatta, UniProt O77680); test: cAMP production in C-6-mD1 cells (cloned expressed primate D1A receptors); type: cell-based; details: for agonist intrinsic activity at D1 receptors: C-6-mD1 cells / cloned expressed primate D1A receptors, relative to dopamine
T2 construct: expressed in transfected cells; host or cells: C-6 glioma cells (C-6-mD1)
Procedure: Radioreceptor and function studies were also conducted for cloned human or monkey receptors transfected into one of several cell lines [e.g., C-6 glioma or Chinese hamster ovary (CHO) cells]. Cells were grown in appropriate medium, and at confluency, harvested for membrane preparation. Flasks of cells in the same passage were scraped using a rubber policeman and collected in 50 ml centrifuge tubes. These were spun for 10 min at 1200×g, to pellet whole cells. The supernatant was discarded and then five ml of PBS (phosphate buffered saline)/flask was added to the centrifuge tubes to resuspend the cells. The tubes were then centrifuged again for […] at 28,500×g. The PBS was removed and the pellet suspended in a solution of 10% DMSO in PBS. Cells were homogenized with a polytron for 10 seconds on setting 5. One ml aliquots were stored at −80° C. until use in receptor binding studies. Aliquots contained approximately 1 mg/ml of protein, as measured using the BCA protein assay reagent (Pierce, Rockford, Ill.). Agonist intrinsic activity was assessed by the ability of selected compounds to stimulate adenylate cyclase, as measured by cAMP formation in whole cells. In C-6 cells, for example, the dose response curve for each drug was fit using a sigmoid function to determine maximal effective concentration (top plateau of curve) as well as EC50s. All drugs were run in the same assay in order to decrease variability across cell passages. Confluent plates of cells were incubated with drugs dissolved in DMEM-H plain media supplemented with 20 mM Hepes, 0.01% ascorbic acid and 500 μM iso-butyl-methyl xanthine (IBMX; pH 7.2; media A). The final volume for each well was 500 μl. In addition to the dose response curves run for each drug, basal levels of cAMP and isoproterenol-stimulated (through endogenous β2 receptors, positive control) cAMP levels were evaluated for each plate. Each condition was run in duplicate wells. Following a 10 min incubation at 37° C., cells were rinsed briefly with media, and the reaction stopped with the addition of 500 μl 0.1 N HCl. Cells were then allowed to chill for 5-10 min at 4° C., the wells were scraped and the volume placed into 1.7 ml centrifuge tubes. An additional 1 ml of 0.1 N HCl was added to each tube, for a final volume of 1.5 ml/tube. Tubes were vortexed briefly, and then spun in a BHG Hermle Z 230 M microcentrifuge for five min at 15,000×g to eliminate large cellular particles. Cyclic AMP levels for each sample were determined as described above. Data were calculated for each sample, and expressed initially as pmol/mg/min cAMP. […] Normalized dose-response curves were analyzed by nonlinear regression using an algorithm for sigmoid curves in the curvefitting program InPlot (Graphpad, Inc.; San Francisco, Calif.). […]

D2-like receptors = test: Functional selectivity at D2-like receptors in rats (in vivo or in vitro); design: species or system rat
[3] = tested on: MPTP-treated monkey model; details: cited from earlier work
[4] = target: T3, rat striatal D1 receptors (Rattus norvegicus, UniProt P18901); test: Radioreceptor binding, rat striatal D1 receptors labeled with [3H]SCH23390
T3 construct: Frozen rat striata was homogenized by seven manual strokes; from tissue; host or cells: rat striatum
Procedure: FIG. 1 is a graphic representation of the affinity of dinoxyline (circles), dinapsoline (diamonds) and (+)-SCH23390 (solid circles) for striatal D1 receptors. Rat striatal D1 receptors were labeled with [^3H]SCH23390 (1), and unlabeled dinoxyline, dinapsoline, or (+)-SCH23390 was added to determine the specific binding of each compound to the D1 receptor.
(§1) Frozen rat striata was homogenized by seven manual strokes in a Wheaton Teflon-glass homogenizer in 8 ml ice cold 50 mM HEPES buffer with 4.0 mM MgCl2, (pH 7.4). The tissue was centrifuged at 27,000×g for 10 min, the supernatant was discarded, and the pellet was homogenized (5 strokes) and resuspended in ice cold buffer and centrifuged again. The final pellet was suspended at a concentration of approximately 2.0 mg wet weight/ml. The amount of tissue added to each assay tube was 1.0 mg, in a final assay volume of 1.0 ml. D1 receptors were labeled with [^3H] SCH23390 (0.30 nM). D2 receptors were labeled with [^3H] spiperone (0.07 nM); unlabeled ketanserin (50 nM) was added to mask binding to 5HT2 sites. Total binding was defined as radioligand bound in the absence of any competing drug. Nonspecific binding was estimated by adding unlabeled SCH23390 (1 μM) or unlabeled chlorpromazine ([…]) for D1 and D2 receptor binding assays, respectively. Triplicate determinations were made for each drug concentration in each assay. Assay tubes were incubated at 37° C. for 15 minutes. Binding was terminated by filtering with ice cold buffer on a Skatron 12 well cell harvester (Skatron, Inc., Sterling, Va.) using glass fiber filter mats (Skatron no. 7034). Filters were allowed to dry and 2.0 ml of Optiphase HI-SAF II scintillation fluid was added. After shaking for 30 minutes, radioactivity was determined on a LKB Wallac 1219 RackBeta liquid scintillation counter (Wallac, Gaithersburg, Md.). Tissue protein levels were estimated using the BCA protein assay reagent.

striatal D2 receptors = test: Radioreceptor binding, striatal D2 receptors labeled with [3H]spiperone; design: species or system rat; details: compared with dihydrexidine
Procedure: FIG. 3 is a graphic representation of the affinity of dinoxyline (circles), dinapsoline (diamonds), and chlorpromazine for striatal D2 receptors labeled with [^3H]spiperone. Unlabeled dinoxyline, dinapsoline, or chlorpromazine was added to determine the specific binding of each compound to the D2 receptor.
as §1, with “Triplicate determinations were made for each drug concentration in each assay. Assay tubes were incubated at 37° C. for 15 minutes. Binding was terminated by filtering with ice cold buffer on a Skatron 12 well cell harvester (Skatron, Inc., Sterling, Va.) using glass fiber filter mats (Skatron no. 7034). Filters were allowed to dry and 2.0 ml of Optiphase HI-SAF II scintillation fluid was added.” left out, “Tissue protein levels were estimated using the BCA protein assay reagent.” left out

cloned human D4 receptor = target: T4, cloned human D4 receptor (Homo sapiens, UniProt P21917); test: Radioreceptor binding, cloned human D4 receptor; details: read-out: K0.5 at the cloned human D4 receptor
T4 construct: expressed in transfected cells; host or cells: not specified (e.g. C-6 glioma or CHO cells)
T4 sequence (P21917 1-419): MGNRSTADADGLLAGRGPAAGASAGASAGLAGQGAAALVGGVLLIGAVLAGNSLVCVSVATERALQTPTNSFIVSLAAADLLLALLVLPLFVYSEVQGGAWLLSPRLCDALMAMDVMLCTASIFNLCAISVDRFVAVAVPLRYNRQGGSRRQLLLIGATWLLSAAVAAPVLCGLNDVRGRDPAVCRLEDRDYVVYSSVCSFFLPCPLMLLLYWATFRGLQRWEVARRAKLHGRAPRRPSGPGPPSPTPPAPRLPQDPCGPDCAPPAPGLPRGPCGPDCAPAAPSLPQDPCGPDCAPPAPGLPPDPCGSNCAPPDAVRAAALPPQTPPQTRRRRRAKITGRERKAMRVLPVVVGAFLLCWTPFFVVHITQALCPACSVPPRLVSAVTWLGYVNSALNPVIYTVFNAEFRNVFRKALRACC
Procedure: Cells were grown in appropriate medium, and at confluency, harvested for membrane preparation. Flasks of cells in the same passage were scraped using a rubber policeman and collected in 50 ml centrifuge tubes. These were spun for 10 min at 1200×g, to pellet whole cells. The supernatant was discarded and then five ml of PBS (phosphate buffered saline)/flask was added to the centrifuge tubes to resuspend the cells. The tubes were then centrifuged again for min at 28,500×g. The PBS was removed and the pellet suspended in a solution of 10% DMSO in PBS. Cells were homogenized with a polytron for 10 seconds on setting 5. One ml aliquots were stored at −80° C. until use in receptor binding studies. Aliquots contained approximately 1 mg/ml of protein, as measured using the BCA protein assay reagent (Pierce, Rockford, Ill.). […]

D1 and D2 receptors = test: D1:D2 selectivity from receptor binding
Procedure: as §1, with “Filters were allowed to dry and 2.0 ml of Optiphase HI-SAF II scintillation fluid was added.” left out, “Tissue protein levels were estimated using the BCA protein assay reagent.” left out

[5] = tested on: rat unilateral 6-OHDA-lesion model; test: Rat unilateral 6-OHDA-lesion model, contralateral rotation; type: in vivo
Text: (§2) Accordingly dinoxyline and its derivatives have potential clinical utility in Parkinson's Disease and in other conditions where perturbation of dopamine receptors may be therapeutic.

[6] = tested on: marmosets having moderately-severe MPTP-induced dopamine denervation; test: Marmosets with moderately-severe MPTP-induced dopamine denervation; type: in vivo, marmoset; details: preliminary studies
Text: as §2

D1 receptor = D1 receptor (Homo sapiens, UniProt P21728); details: preparations with decreased receptor reserve; cited from earlier work
Chain of D1 receptor (P21728 whole entry): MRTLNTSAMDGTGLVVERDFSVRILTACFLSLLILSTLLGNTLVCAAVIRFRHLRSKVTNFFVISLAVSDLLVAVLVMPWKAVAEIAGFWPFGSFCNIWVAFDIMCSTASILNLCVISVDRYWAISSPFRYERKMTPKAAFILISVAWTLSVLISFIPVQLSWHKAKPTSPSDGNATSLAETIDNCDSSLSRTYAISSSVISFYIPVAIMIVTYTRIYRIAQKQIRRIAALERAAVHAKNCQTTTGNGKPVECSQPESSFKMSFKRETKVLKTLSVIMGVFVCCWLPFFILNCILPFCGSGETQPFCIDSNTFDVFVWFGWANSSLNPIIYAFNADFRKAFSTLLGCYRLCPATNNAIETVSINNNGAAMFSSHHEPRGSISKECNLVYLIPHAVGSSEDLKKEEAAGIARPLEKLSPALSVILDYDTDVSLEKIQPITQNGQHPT

T2 sequence (O77680 whole entry): as the sequence (P21728 whole entry) above, with N311I counted along it
T3 sequence (P18901 whole entry): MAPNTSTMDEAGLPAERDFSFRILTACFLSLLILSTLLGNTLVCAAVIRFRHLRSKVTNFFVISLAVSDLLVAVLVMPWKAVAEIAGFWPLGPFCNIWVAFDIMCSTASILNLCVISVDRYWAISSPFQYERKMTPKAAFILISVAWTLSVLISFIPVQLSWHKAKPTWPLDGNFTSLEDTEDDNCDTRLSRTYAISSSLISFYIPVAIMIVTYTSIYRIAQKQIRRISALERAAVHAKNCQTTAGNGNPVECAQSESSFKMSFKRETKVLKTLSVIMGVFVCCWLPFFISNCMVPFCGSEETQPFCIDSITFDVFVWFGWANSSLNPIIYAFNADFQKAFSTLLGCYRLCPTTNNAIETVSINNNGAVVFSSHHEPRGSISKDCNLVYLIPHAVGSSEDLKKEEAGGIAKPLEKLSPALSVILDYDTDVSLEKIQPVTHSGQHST
T1 sequence (P18901 whole entry): as above

agonist intrinsic activity at D1 receptors (D1 receptors [1]): partial agonist | agonist intrinsic activity at D1 receptors (D1 receptors [2]): partial agonist
Compound: Oc1cc2c(cc1O)C(c1ccccc1)CNCC2 (single isomer, unassigned; (+)) [(+)-SKF 38393, reference compound]

agonist intrinsic activity at D1 receptors (D1 receptors [1]): full agonist | agonist intrinsic activity at D1 receptors (D1 receptors [2]): full agonist
Compound: Oc1cc2c(cc1O)[C@H]1c3ccccc3CN[C@@H]1CC2 (racemic) [dihydrexidine, (±)-trans-10,11-dihydroxy-5,6,6a,7,8,12b-hexahydrobenzo[a]phenanthridine]
activity at D2-like receptors located post-synaptically (D2-like receptors): agonist | activity at D2-like receptors located pre-synaptically (D2-like receptors): antagonist | antiparkinsonian effects [3]: exceptional antiparkinsonian effects

Ki ([4]; [3H]SCH23390 label, rat striatum, read-out: K0.5 for rat striatal D1 receptors): < 5 nM | affinity for dopamine D1 receptors labeled with [3H]SCH23390 (in words) ([4]; compared with dihydrexidine): high affinity | nH of competition curve ([4]; competition at D1 receptors labeled with [3H]SCH23390, shallow curve consistent with agonist properties): ca. 0.7 | affinity for D2-like receptors (in words) (striatal D2 receptors): greater affinity | agonist intrinsic activity at D1 receptors (D1 receptors [1]; hydrobromide): full agonist activity | EC50 (D1 receptors [1]; rat striatum, read-out: EC50 in stimulating synthesis of cAMP via D1 receptors): < 30 nM | agonist intrinsic activity at D1 receptors (D1 receptors [2]; hydrobromide): full agonist activity | EC50 (D1 receptors [2]; C-6-mD1 cells, read-out: EC50 in stimulating synthesis of cAMP via D1 receptors): < 30 nM | Ki (cloned human D4 receptor): < 45 nM | D1:D2 selectivity (D1 and D2 receptors): equally high affinity for both receptors | melting point: 298 to 302 °C (dec.)
Compound: Br.Oc1ccc2c(c1O)Oc1cccc3c1C2CNC3 (racemic) [dinoxyline, (±)-8,9-dihydroxy-1,2,3,11b-tetrahydrochromeno[4,3,2-de]isoquinoline hydrobromide]
duration of action relative to a similar dose of dihydrexidine ([5]; same route (subcutaneous)): more than twice | contralateral rotation ([5]; single subcutaneous dose): significant rotation | antiparkinson effects (locomotion, arousal, Parkinson signs) [6]: significant antiparkinson effects

Ki (cloned human D4 receptor): > 1000 nM | D1:D2 selectivity (D1 and D2 receptors): five-fold
Compound: Oc1ccc2c(c1O)Cc1cccc3c1C2CNC3 (racemic) [dinapsoline, (±)-8,9-dihydroxy-2,3,7,11b-tetrahydro-1H-naphtho[1,2,3-de]isoquinoline, reference compound]

Compound: NC[C@@H]1O[C@H](C23CC4CC(CC(C4)C2)C3)Cc2c1ccc(O)c2O [Example A-77636]
antiparkinsonian effects [3]: exceptional antiparkinsonian effects

Compound: C=CCN1CCc2c(cc(O)c(O)c2Cl)C(c2ccccc2)C1 (stereo not shown) [SKF82958]
intrinsic efficacy at D1 receptor (D1 receptor): not to have full intrinsic efficacy
